Assay results: ChEMBL document CHEMBL1201862, “PubChem BioAssay data set” (2004)
Active and inactive are the calls of the source.

Assays:
[1] = insulin promoter down-regulators in MIN6 cells, imaging, high-content screening, mouse beta cells (AID 1628); format: functional
[2] = target: T1, Serine/threonine-protein phosphatase (Candida dubliniensis (strain CD36 / CBS 7987 / NCPF 3949 / NRRLY-17841) (Yeast), UniProt B9W6M3); experiment: calcineurin pathway inhibitors in yeast reporter, dose response, S. cerevisiae, CDRE-lacZ, luminescence, secondary (AID 2388); format: functional, cell-based;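 also: yeast reporter cells carrying a calcineurin-responsive lacZ construct stimulated with calcium chloride; luminescent beta-galactosidase reporter signal in whole cells rather than isolated phosphatase activity; potency for inhibition where a drop in reporter signal means calcineurin blockade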
T1 sequence (B9W6M3 whole entry): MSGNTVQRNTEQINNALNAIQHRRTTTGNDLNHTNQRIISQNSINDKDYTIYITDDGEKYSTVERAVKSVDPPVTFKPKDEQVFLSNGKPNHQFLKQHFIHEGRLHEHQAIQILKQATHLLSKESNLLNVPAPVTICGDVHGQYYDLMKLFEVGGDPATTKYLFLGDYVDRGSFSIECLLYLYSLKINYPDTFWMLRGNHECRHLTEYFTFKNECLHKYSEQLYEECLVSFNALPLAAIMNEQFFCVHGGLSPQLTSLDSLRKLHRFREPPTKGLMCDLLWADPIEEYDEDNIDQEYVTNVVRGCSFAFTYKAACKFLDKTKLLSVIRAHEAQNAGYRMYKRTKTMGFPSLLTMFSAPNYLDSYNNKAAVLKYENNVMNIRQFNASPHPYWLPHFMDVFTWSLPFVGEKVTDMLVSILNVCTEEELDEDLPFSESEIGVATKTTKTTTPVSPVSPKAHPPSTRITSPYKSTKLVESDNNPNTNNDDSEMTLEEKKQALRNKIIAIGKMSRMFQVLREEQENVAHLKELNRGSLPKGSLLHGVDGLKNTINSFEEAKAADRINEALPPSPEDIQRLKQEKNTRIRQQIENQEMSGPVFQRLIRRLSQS

[3] = THP-1 cell cytotoxicity, dose response, cytotoxicity control for non-replicating M. tuberculosis project (AID 489025); format: functional
[4] = target: T2, Type-1 angiotensin II receptor (Homo sapiens, UniProt P30556); experiment: AT1 receptor antagonists, dose response, selectivity assay for APJ receptor antagonist project, cell-based, uHTS hits (AID 463214); format: functional;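 also: antagonist potency against angiotensin II stimulated AT1 response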
T2 sequence (P30556 whole entry): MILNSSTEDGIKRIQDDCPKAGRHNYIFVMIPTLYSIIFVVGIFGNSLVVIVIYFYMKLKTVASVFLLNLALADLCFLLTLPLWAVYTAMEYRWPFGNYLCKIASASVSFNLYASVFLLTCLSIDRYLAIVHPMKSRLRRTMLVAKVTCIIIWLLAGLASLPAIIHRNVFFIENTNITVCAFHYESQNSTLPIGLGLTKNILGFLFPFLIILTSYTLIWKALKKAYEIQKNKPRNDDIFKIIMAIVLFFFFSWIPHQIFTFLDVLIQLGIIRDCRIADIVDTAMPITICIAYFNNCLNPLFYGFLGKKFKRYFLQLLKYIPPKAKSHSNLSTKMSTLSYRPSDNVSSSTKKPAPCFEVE

[5] = target: T3, Heat shock factor protein 1 (Mus musculus, UniProt P38532); experiment: HSF1 potentiators in luciferase reporter cells, confirmation, cell-based, NIH3T3, luminescence, dose retest (AID 435004); format: functional;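 also: stress induced by proteasome inhibitor MG132 added 30 min after compound; luciferase reporter driven by HSF1 response element in NIH3T3 cells; actives raise luminescence as potentiators of the MG132 stress response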
T3 sequence (P38532 whole entry): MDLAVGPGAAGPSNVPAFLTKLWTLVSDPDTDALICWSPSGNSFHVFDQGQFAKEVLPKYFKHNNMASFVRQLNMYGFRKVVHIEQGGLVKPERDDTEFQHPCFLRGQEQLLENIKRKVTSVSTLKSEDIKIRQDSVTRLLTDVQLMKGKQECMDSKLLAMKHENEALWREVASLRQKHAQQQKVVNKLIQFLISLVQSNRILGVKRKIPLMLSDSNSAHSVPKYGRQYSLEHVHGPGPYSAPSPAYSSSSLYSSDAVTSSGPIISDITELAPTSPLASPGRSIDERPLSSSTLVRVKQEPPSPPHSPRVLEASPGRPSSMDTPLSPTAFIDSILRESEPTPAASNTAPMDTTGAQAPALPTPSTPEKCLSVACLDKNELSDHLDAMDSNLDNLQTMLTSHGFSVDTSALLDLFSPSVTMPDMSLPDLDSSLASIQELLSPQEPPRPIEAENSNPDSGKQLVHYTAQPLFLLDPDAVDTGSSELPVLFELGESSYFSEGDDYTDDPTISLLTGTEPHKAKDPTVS

Hexokinase HKDC1 = target: T4, Hexokinase HKDC1 (Homo sapiens, UniProt Q2TB90); experiment: HKDC1 hexokinase inhibitors, dose response, biochemical, W721R variant (AID 504729); format: functional
T4 sequence (Q2TB90 whole entry): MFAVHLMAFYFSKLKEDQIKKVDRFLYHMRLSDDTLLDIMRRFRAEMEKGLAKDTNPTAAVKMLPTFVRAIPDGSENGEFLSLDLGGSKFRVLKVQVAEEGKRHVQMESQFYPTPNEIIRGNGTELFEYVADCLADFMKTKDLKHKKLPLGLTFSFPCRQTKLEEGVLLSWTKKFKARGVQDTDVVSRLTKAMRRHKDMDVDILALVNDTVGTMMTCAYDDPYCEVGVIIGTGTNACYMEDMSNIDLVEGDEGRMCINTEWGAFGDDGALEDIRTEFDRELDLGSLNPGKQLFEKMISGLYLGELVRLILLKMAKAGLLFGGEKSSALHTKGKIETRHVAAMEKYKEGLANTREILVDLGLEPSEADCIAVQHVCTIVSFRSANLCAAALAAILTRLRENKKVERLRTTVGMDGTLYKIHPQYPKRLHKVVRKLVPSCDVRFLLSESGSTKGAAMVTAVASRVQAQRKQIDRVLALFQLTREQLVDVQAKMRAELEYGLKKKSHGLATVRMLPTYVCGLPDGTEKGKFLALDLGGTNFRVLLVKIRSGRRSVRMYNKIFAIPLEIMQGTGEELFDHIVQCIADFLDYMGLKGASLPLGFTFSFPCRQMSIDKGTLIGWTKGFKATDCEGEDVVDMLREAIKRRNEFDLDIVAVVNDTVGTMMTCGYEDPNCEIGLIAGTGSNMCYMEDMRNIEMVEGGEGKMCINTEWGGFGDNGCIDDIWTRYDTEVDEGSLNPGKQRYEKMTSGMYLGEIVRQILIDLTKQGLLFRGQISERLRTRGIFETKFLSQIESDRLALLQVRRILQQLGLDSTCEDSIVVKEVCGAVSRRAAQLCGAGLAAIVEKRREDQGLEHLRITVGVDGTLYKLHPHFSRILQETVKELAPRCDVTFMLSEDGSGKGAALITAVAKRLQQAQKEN

[6] = target: T5, Mitochondrial peptide methionine sulfoxide reductase (Bos taurus, UniProt P54149); format: functional;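 also: absorbance read-out, biochemical high-throughput dose-response screen for MsrA inhibitors, confirmatory; recombinant bovine MsrA coupled to E. coli TrxB with NADPH and selenocystamine; potency is for inhibitors of MsrA activity on DMSO substrate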
T5 sequence (P54149 whole entry): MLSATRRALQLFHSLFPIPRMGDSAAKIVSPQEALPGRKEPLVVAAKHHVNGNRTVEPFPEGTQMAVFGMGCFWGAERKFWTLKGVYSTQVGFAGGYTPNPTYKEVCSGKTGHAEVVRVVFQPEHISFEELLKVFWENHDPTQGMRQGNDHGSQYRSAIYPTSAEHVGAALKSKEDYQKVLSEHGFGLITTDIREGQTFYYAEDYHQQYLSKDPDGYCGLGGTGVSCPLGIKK

[7] = inhibitors of clade B AD8 Env fusion, dose response, cell-based, cherry-pick (AID 652062); format: functional;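 also: luciferase signal from cell-cell fusion driven by HIV-1 clade B AD8 Env; potency is for inhibitors of fusion seen as a drop in luminescence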

Oc1c(C(c2ccccc2Cl)N2CCCC2)ccc2cccnc12 (stereo not drawn)
IC50 [1]: 5.2 µM (active)
EC50 [2]: > 180 µM (inactive)
CC50 [3]: 9.54 µM (active)
IC50 [4]: 12 µM (active)

COc1cccc(/C=N/Nc2ccc([N+](=O)[O-])cn2)c1O
EC50 [5]: 3.08 µM (active)

CCc1ccc(S(=O)(=O)/N=C2\C=C(Nc3ccc(C(=O)O)cc3)C(=O)c3ccccc32)cc1
IC50 (Hexokinase HKDC1): 6.5 µM (active)
IC50 [6]: 5 µM (active)
AC50 [7]: 3.52 µM (active)
